In brackets after ≈: the same amount, converted by molar mass.

This is an account of results in ChEMBL document CHEMBL1133323, “Antitumor agents. Part 202: novel 2'-amino chalcones: design, synthesis and biological evaluation” (2000).

The test system of one assay is 1A9. The experiment in a line: In vitro cytotoxicity against human ovarian cancer (IA9) cell line. It counts as functional. The note with it: read-out: ED50 (the source's name).
The test system of assay [1] is U-87 MG. The assay can be described thus: (§1) In vitro cytotoxicity against human glioblastoma (U-87-MG) cell line. The assay is classed as functional, U-87MG ATCC. Also noted: concentration or dose not given beside the values.
Another assay relates to SK-MEL-2. The experiment in a line: In vitro cytotoxicity against human melanoma (SKMEL-2) cell line. It counts as functional. The following applies: for EC50: read-out: ED50 (the source's name).
Assay [2] relates to KB. The experiment in a line: In vitro cytotoxicity against human epidermoid carcinoma of the nasopharynx (KB) cell line. It counts as functional. The following applies: read-out: ED50 (the source's name).
For assay [3], the system named is KB. The experiment in a line: In vitro cytotoxicity against human P-glycoprotein-expressing epidermoid carcinoma of the nasopharynx (KB-VIN) cell line. The assay is classed as functional. The following applies: read-out: ED50 (the source's name).
The subject of the next assay is HCT-8. The experiment in a line: In vitro cytotoxicity against human ileocecal carcinoma (HCT-8) cell line. The assay is classed as functional. The following applies: for EC50: read-out: ED50 (the source's name).
The test system of another assay is MCF7. The assay can be described thus: In vitro cytotoxicity against human breast cancer (MCF-7) cell line. It counts as functional. The following applies: read-out: ED50 (the source's name).
The test system of assay [4] is U-87 MG. The description is as §1. The following applies: read-out: ED50 (the source's name). It counts as functional, U-87MG ATCC.
Another assay relates to A549. The experiment in a line: In vitro cytotoxicity against human lung carcinoma (A-549) cell line. It counts as functional. The following applies: read-out: ED50 (the source's name).
A further assay concerns HOS. The experiment in a line: In vitro cytotoxicity against human osteosarcoma (Hos) cell line. The following applies: for EC50: read-out: ED50 (the source's name). It counts as functional.

Usually Inhibition stands for the drop in the measured response relative to a control, in per cent. Turning to `Cc1ccccc1/C=C/C(=O)c1ccccc1N`, the EC50 with 1A9 is 1.2 µg/mL (≈ 5.06 µM); with SK-MEL-2, 5.1 µg/mL (≈ 21.5 µM); in the assay with KB [2] it was 1.35 µg/mL (≈ 5.69 µM); with KB [3], 1.25 µg/mL (≈ 5.27 µM); in the assay with HCT-8 it was 9.8 µg/mL (≈ 41.3 µM); in the assay with MCF7, 6.1 µg/mL (≈ 25.7 µM). In addition, the EC50 was more than 10 µg/mL in the assay with U-87 MG [4], 3.5 µg/mL (≈ 14.7 µM) in the assay on A549 and 4 µg/mL (≈ 16.9 µM) with HOS. The compound further came in with an Inhibition in the assay on U-87 MG [1] of 34%.
`Nc1cc2c(cc1C(=O)/C=C/c1ccccc1F)OCO2`: the EC50 in the assay on 1A9 was determined as 1.5 µg/mL (≈ 5.26 µM); in the assay with SK-MEL-2, 6.5 µg/mL (≈ 22.8 µM); in the assay on KB [2] it was 1.5 µg/mL (≈ 5.26 µM); in the assay with KB [3], 0.95 µg/mL (≈ 3.33 µM); in the assay on HCT-8, 3 µg/mL (≈ 10.5 µM); with MCF7, 2.6 µg/mL (≈ 9.11 µM). The EC50 in the assay with U-87 MG [4] worked out at 7 µg/mL (≈ 24.5 µM); in the assay with A549 it was 2 µg/mL (≈ 7.01 µM); in the assay on HOS, 4 µg/mL (≈ 14 µM).
As to `COc1cccc(/C=C/C(=O)c2ccccc2N)c1`, the EC50 in the assay on 1A9 stood at 0.8 µg/mL (≈ 3.16 µM); with SK-MEL-2, 3.5 µg/mL (≈ 13.8 µM); in the assay on KB [2] it was 0.65 µg/mL (≈ 2.57 µM); in the assay on KB [3], 0.3 µg/mL (≈ 1.18 µM); in the assay with HCT-8, 4.5 µg/mL (≈ 17.8 µM); in the assay with MCF7, 1.3 µg/mL (≈ 5.13 µM). For the same compound, the EC50 with U-87 MG [4] was found to be 5.1 µg/mL (≈ 20.1 µM); in the assay on A549, 1.2 µg/mL (≈ 4.74 µM); with HOS, 2 µg/mL (≈ 7.9 µM).
As for `Cc1ccccc1C1OC1C(=O)c1ccccc1N` (stereo unspecified), the EC50 with 1A9 is 12.5 µg/mL (≈ 49.3 µM); in the assay on SK-MEL-2, more than 20 µg/mL; in the assay on KB [2], 15.5 µg/mL (≈ 61.2 µM); with KB [3] it was 11.5 µg/mL (≈ 45.4 µM); in the assay on HCT-8 it was more than 20 µg/mL; with MCF7, 19.5 µg/mL (≈ 77 µM). In addition, the EC50 was more than 20 µg/mL in the assay on U-87 MG [4], 17 µg/mL (≈ 67.1 µM) in the assay with A549 and more than 20 µg/mL in the assay on HOS. The Inhibition in the assay with U-87 MG [1] is listed as 28%; in the assay with SK-MEL-2, 45%; in the assay with HCT-8 it was 41%; in the assay with HOS it was 47%.
With `COc1cccc(/C=C/C(=O)c2ccc3c(c2)OCO3)c1`, the EC50 in the assay with 1A9 was 15 µg/mL (≈ 53.1 µM); in the assay with SK-MEL-2, more than 20 µg/mL; in the assay on KB [2] it was 18.7 µg/mL (≈ 66.2 µM); in the assay on KB [3], 14 µg/mL (≈ 49.6 µM); with HCT-8, more than 20 µg/mL; with MCF7 it was 19 µg/mL (≈ 67.3 µM). Moreover, the results for the EC50 in the assay with U-87 MG [4], in the assay on A549 and with HOS were more than 20 µg/mL, 18.5 µg/mL (≈ 65.5 µM) and more than 20 µg/mL, respectively. Moreover, the Inhibition in the assay on U-87 MG [1] amounted to 20%; in the assay with SK-MEL-2 it was 42%; with HCT-8, 28%; with HOS, 42%.
As for `COc1cccc(/C=C/C(=O)c2cc3c(cc2N)OCO3)c1`, the EC50 with 1A9 came to 0.35 µg/mL (≈ 1.18 µM); in the assay with SK-MEL-2, 2.3 µg/mL (≈ 7.74 µM); with KB [2], 0.52 µg/mL (≈ 1.75 µM); in the assay with KB [3], 0.3 µg/mL (≈ 1.01 µM); with HCT-8 it was 1.5 µg/mL (≈ 5.05 µM); in the assay on MCF7 it was 0.48 µg/mL (≈ 1.61 µM). Besides, the EC50 in the assay with U-87 MG [4] is 8 µg/mL (≈ 26.9 µM); in the assay on A549, 0.45 µg/mL (≈ 1.51 µM); in the assay on HOS, 2.4 µg/mL (≈ 8.07 µM).
Turning to `Nc1cc2c(cc1C(=O)/C=C/c1ccc(F)cc1)OCO2`, the EC50 in the assay on 1A9 worked out at 3.5 µg/mL (≈ 12.3 µM); in the assay with SK-MEL-2 it was 9 µg/mL (≈ 31.5 µM); in the assay on KB [2] it was 3.1 µg/mL (≈ 10.9 µM); with KB [3], 2.2 µg/mL (≈ 7.71 µM); in the assay on HCT-8, 6.5 µg/mL (≈ 22.8 µM); in the assay with MCF7 it was 5.1 µg/mL (≈ 17.9 µM). For the same compound, the EC50 with U-87 MG [4] was more than 10 µg/mL; in the assay on A549, 4.2 µg/mL (≈ 14.7 µM); in the assay on HOS, 6 µg/mL (≈ 21 µM). The compound further displayed an Inhibition in the assay on U-87 MG [1] of 49%.
On to `COc1cccc(C2OC2C(=O)c2cc3c(cc2N)OCO3)c1` (stereo unspecified), for which the EC50 in the assay with 1A9 came to 1.2 µg/mL (≈ 3.83 µM); in the assay with SK-MEL-2, 9.8 µg/mL (≈ 31.3 µM); in the assay with KB [2], 2 µg/mL (≈ 6.38 µM); in the assay on KB [3], 1.3 µg/mL (≈ 4.15 µM); in the assay with HCT-8 it was 2.1 µg/mL (≈ 6.7 µM); in the assay on MCF7, 1.1 µg/mL (≈ 3.51 µM). Besides, the EC50 in the assay on U-87 MG [4] turned out to be 5 µg/mL (≈ 16 µM); with A549 it was 2 µg/mL (≈ 6.38 µM); in the assay on HOS it was 4.5 µg/mL (≈ 14.4 µM).
In the case of `Nc1cc2c(cc1C(=O)C1OC1c1ccccc1F)OCO2` (stereo unspecified), the EC50 in the assay on 1A9 came to 1.85 µg/mL (≈ 6.14 µM); in the assay with SK-MEL-2, 9.5 µg/mL (≈ 31.5 µM); with KB [2], 15.4 µg/mL (≈ 51.1 µM); with KB [3] it was 2.3 µg/mL (≈ 7.63 µM); in the assay with HCT-8, 4.8 µg/mL (≈ 15.9 µM); in the assay on MCF7, 2.3 µg/mL (≈ 7.63 µM). For the same compound, the EC50 in the assay on U-87 MG [4] is 9 µg/mL (≈ 29.9 µM); in the assay on A549 it was 3.5 µg/mL (≈ 11.6 µM); in the assay with HOS, 4 µg/mL (≈ 13.3 µM).
